Results as given in patent publication US12552783B2, “Modulators of proteolysis and associated methods of use” (Arvinas Operations, Inc., priority 2018, dated 2026).

Target: KRas (Homo sapiens, UniProt P01116, G12C)
Experiment: KRas degradation in SW1573 cells by Western blot, normalized to GAPDH (data of Table 14)
Format: cell-based
Conditions: SW1573 cells
Method in brief: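 SW1573 cells, homozygous for the KRas G12C mutation and maintained in DMEM with 10% FBS and 1% penicillin-streptomycin, were seeded in 12-well plates, allowed to attach overnight at 37° C. under 5% CO2, then serum-starved for 24 hours before compound exposure. KRas levels were measured by Western blot, normalized to GAPDH, and compared with DMSO controls to give percent degradation, DC50 and Dmax.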

| SMILES | Percent Degradation at Indicated Concentration (μM) (0.03 μM) | Percent Degradation at Indicated Concentration (μM) (0.1 μM) | Percent Degradation at Indicated Concentration (μM) (0.3 μM) | Percent Degradation at Indicated Concentration (μM) (1 μM) | Percent Degradation at Indicated Concentration (μM) (3 μM) | Dmax |
| --- | --- | --- | --- | --- | --- | --- |
| C=CC(=O)N1CCN(c2nc(O[C@H](C)CN3CCC(OCCOCCOCCOc4cc([C@H](C(=O)N5C[C@H](O)C[C@H]5C(=O)N[C@@H](C)c5ccc(-c6scnc6C)cc5)C(C)C)on4)CC3)nc3c(F)c(-c4cc(O)cc5ccccc45)c(Cl)cc23)CC1 [compound 529, (2S,4R)-1-((2R)-2-(3-(2-(2-(2-((1-((2R)-2-((4-(4-acryloylpiperazin-1-yl)-6-chloro-8-fluoro-7-(3-hydroxynaphthalen-1-yl)quinazolin-2-yl)oxy)propyl)piperidin-4-yl)oxy)ethoxy)ethoxy)ethoxy)isoxazol-5-yl)-3-methylbutanoyl)-4-hydroxy-N-((S)-1-(4-(4-methylthiazol-5-yl)phenyl)ethyl)pyrrolidine-2-carboxamide] | C (Percent Degradation: C ≤ 35) | C (Percent Degradation: C ≤ 35) | C (Percent Degradation: C ≤ 35) | – | – | – |
| C=CC(=O)N1CCN(c2nc(O[C@H](C)CN3CCC(OCCOCCOCCOCCOCCOc4ccc5c(c4)C(=O)N(C4CCC(=O)NC4=O)C5=O)CC3)nc3c(F)c(-c4cc(O)cc5ccccc45)c(Cl)cc23)CC1 (stereo partly drawn) [compound 430, 5-((14-((1-((2R)-2-((4-(4-acryloylpiperazin-1-yl)-6-chloro-8-fluoro-7-(3-hydroxynaphthalen-1-yl)quinazolin-2-yl)oxy)propyl)piperidin-4-yl)oxy)-3,6,9,12-tetraoxatetradecyl)oxy)-2-(2,6-dioxopiperidin-3-yl)isoindoline-1,3-dione] | – | C (Percent Degradation: C ≤ 35) | C (Percent Degradation: C ≤ 35) | C (Percent Degradation: C ≤ 35) | – | – |
| C=CC(=O)N1CCN(c2nc(O[C@H](C)CN3CCC(OCCOCCOCCOCCOCCOc4ccc5c(c4)C(=O)N(C4CCC(=O)NC4=O)C5=O)CC3)nc3c2CCN(c2cc(O)cc4ccccc24)C3)CC1 (stereo partly drawn) [compound 420, 5-((14-((1-((R)-2-((4-(4-acryloylpiperazin-1-yl)-7-(3-hydroxynaphthalen-1-yl)-5,6,7,8-tetrahydropyrido[3,4-d]pylimidin-2-yl)oxy)propyl)piperidin-4-yl)oxy)-3,6,9,12-tetraoxatetradecyl)oxy)-2-(2,6-dioxopiperidin-3-yl)isoindoline-1,3-dione] | – | C (Percent Degradation: C ≤ 35) | C (Percent Degradation: C ≤ 35) | C (Percent Degradation: C ≤ 35) | – | – |
| Cc1ncsc1-c1ccc([C@H](C)NC(=O)[C@@H]2C[C@@H](O)CN2C(=O)[C@@H](NC(=O)COCCOCCOCCOC2CCN(C[C@@H](C)Oc3nc(N4CCN(C(=O)C(O)O)CC4)c4cc(Cl)c(-c5cc(O)cc6ccccc56)c(F)c4n3)CC2)C(C)(C)C)cc1 [compound 246, (2S,4R)-1-((2S)-2-(tert-butyl)-14-((1-((2R)-2-((6-chloro-4-(4-(2,2-dihydroxyacetyl)piperazin-1-yl)-8-fluoro-7-(3-hydroxynaphthalen-1-yl)quinazolin-2-yl)oxy)propyl)piperidin-4-yl)oxy)-4-oxo-6,9,12-trioxa-3-azatetradecanoyl)-4-hydroxy-N-((S)-1-(4-(4-methylthiazol-5-yl)phenyl)ethyl)pyrrolidine-2-carboxamide] | – | – | C (Percent Degradation: C ≤ 35) | C (Percent Degradation: C ≤ 35) | C (Percent Degradation: C ≤ 35) | – |
| C=CC(=O)N1CCN(c2nc(OC[C@@H]3C[C@@H](OCCOCCOCCOCCNc4cccc5c4C(=O)N(C4CCC(=O)NC4=O)C5=O)CN3C)nc3c2CCN(c2cccc4ccccc24)C3)C[C@@H]1CC#N (stereo partly drawn) [compound 518, 2-((2S)-1-acryloyl-4-(2-(((2S,4R)-4-(2-(2-(2-(2-((2-(2,6-dioxopiperidin-3-yl)-1,3-dioxoisoindolin-4-yl)amino)ethoxy)ethoxy)ethoxy)ethoxy)-1-methylpyrrolidin-2-yl)methoxy)-7-(naphthalen-1-yl)-5,6,7,8-tetrahydropyrido[3,4-d]pyrimidin-4-yl)piperazin-2-yl)acetonitrile] | – | B (35 < B < 70) | A (A > 70) | C (Percent Degradation: C ≤ 35) | – | ≥ 70% |
| C=CC(=O)N1CCN(c2nc(O[C@H](C)CN3CCC(OCCOCCOCCOc4cc(-c5scnc5C)ccc4CNC(=O)[C@@H]4C[C@@H](O)CN4C(=O)[C@H](c4cc(C)no4)C(C)C)CC3)nc3c2CCN(c2cc(O)cc4ccccc24)C3)CC1 [compound 441, (2S,4R)-N-(2-(2-(2-(2-((1-((R)-2-((4-(4-acryloylpiperazin-1-yl)-7-(3-hydroxynaphthalen-1-yl)-5,6,7,8-tetrahydropyrido[3,4-d]pyrimidin-2-yl)oxy)propyl)piperidin-4-yl)oxy)ethoxy)ethoxy)ethoxy)-4-(4-methylthiazol-5-yl)benzyl)-4-hydroxy-1-((S)-3-methyl-2-(3-methylisoxazol-5-yl)butanoyl)pyrrolidine-2-carboxamide] | – | C (Percent Degradation: C ≤ 35) | C (Percent Degradation: C ≤ 35) | C (Percent Degradation: C ≤ 35) | – | – |
| C=CC(=O)N1CCN(c2nc(O[C@H](C)CN3CCC(OCCOCCOCCOCCOCCOc4cc(-c5scnc5C)ccc4CNC(=O)[C@@H]4C[C@@H](O)CN4C(=O)[C@H](c4cc(C)no4)C(C)C)CC3)nc3c2CCN(c2cc(O)cc4ccccc24)C3)CC1 [compound 444] | – | C (Percent Degradation: C ≤ 35) | C (Percent Degradation: C ≤ 35) | C (Percent Degradation: C ≤ 35) | – | – |
| C=CC(=O)N1CCN(c2nc(O[C@H](C)CN3CCN(CC4CCN(CC(=O)N[C@H](C(=O)N5C[C@H](O)C[C@H]5C(=O)N[C@@H](C)c5ccc(-c6scnc6C)cc5)C(C)(C)C)CC4)CC3)nc3c(F)c(-c4cc(O)cc5ccccc45)c(Cl)cc23)CC1 [compound 404, (2S,4R)-1-((2S)-2-(2-(4-((4-((2R)-2-((4-(4-acryloylpiperazin-1-yl)-6-chloro-8-fluoro-7-(3-hydroxynaphthalen-1-yl)quinazolin-2-yl)oxy)propyl)piperazin-1-yl)methyl)piperidin-1-yl)acetamido)-3,3-dimethylbutanoyl)-4-hydroxy-N-((S)-1-(4-(4-methylthiazol-5-yl)phenyl)ethyl)pyrrolidine-2-carboxamide] | – | B (35 < B < 70) | A (A > 70) | A (A > 70) | – | – |
| C=CC(=O)N1CCN(c2nc(OC[C@@H]3C[C@@H](OCCOCCOCCOCCOCCOc4ccc5c(c4)C(=O)N(C4CCC(=O)NC4=O)C5=O)CN3C)nc3c2CCN(c2cccc4ccccc24)C3)C[C@@H]1CC#N (stereo partly drawn) [compound 505, 2-((2S)-1-acryloyl-4-(2-(((2S,4R)-4-((14-((2-(2,6-dioxopiperidin-3-yl)-1,3-dioxoisoindolin-5-yl)oxy)-3,6,9,12-tetraoxatetradecyl)oxy)-1-methylpyrrolidin-2-yl)methoxy)-7-(naphthalen-1-yl)-5,6,7,8-tetrahydropyrido[3,4-d]pyrimidin-4-yl)piperazin-2-yl)acetonitrile] | C (Percent Degradation: C ≤ 35) | C (Percent Degradation: C ≤ 35) | C (Percent Degradation: C ≤ 35) | – | – | – |
| C=CC(=O)N1CCN(c2nc(O[C@H](C)CN3CCC(CN4CCN(c5ccc6c(c5)C(=O)N(C5CCC(=O)NC5=O)C6=O)CC4)CC3)nc3c(F)c(-c4cc(O)cc5ccccc45)c(Cl)cc23)CC1 (stereo partly drawn) [compound 431, 5-(4-((1-((2R)-2-((4-(4-acryloylpiperazin-1-yl)-6-chloro-8-fluoro-7-(3-hydroxynaphthalen-1-yl)quinazolin-2-yl)oxy)propyl)piperidin-4-yl)methyl)piperazin-1-yl)-2-(2,6-dioxopiperidin-3-yl)isoindoline-1,3-dione] | – | C (Percent Degradation: C ≤ 35) | C (Percent Degradation: C ≤ 35) | C (Percent Degradation: C ≤ 35) | – | – |
| C=CC(=O)N1CCN(c2nc(OC[C@@H]3C[C@@H](OCCOCCOc4ccc5c(c4)C(=O)N(C4CCC(=O)NC4=O)C5=O)CN3C)nc3c2CCN(c2cccc4ccccc24)C3)C[C@@H]1CC#N (stereo partly drawn) [compound 503, 2-((2S)-1-acryloyl-4-(2-(((2S,4R)-4-(2-(2-((2-(2,6-dioxopiperidin-3-yl)-1,3-dioxoisoindolin-5-yl)oxy)ethoxy)ethoxy)-1-methylpyrrolidin-2-yl)methoxy)-7-(naphthalen-1-yl)-5,6,7,8-tetrahydropyrido[3,4-d]pyrimidin-4-yl)piperazin-2-yl)acetonitrile] | C (Percent Degradation: C ≤ 35) | C (Percent Degradation: C ≤ 35) | C (Percent Degradation: C ≤ 35) | C (Percent Degradation: C ≤ 35) | – | – |
